# Patent publication US20250084035A1, “POLYMORPHIC FORM OF MEISOINDIGO AND MODIFIED FORMULATION OF MEISOINDIGO” (STATIA BIOPHARMA INC., priority 2018, published 2025)
# Experiments:
# [1] = Particle size and distribution, Malvern Mastersizer 2000; type: physicochemical; settings: for Particle size d10 / Particle size d50 / Particle size d90: Crystal Form I, Malvern Mastersizer 2000; for Particle Size Distribution Ratio: calculated as (d90-d10)/d50
# Protocol: Crystal Form I was analyzed for its particle size and distribution. Five batches were tested using a Malvern Mastersizer 2000 (MIIA14730, Malvern, UK).
# leukemia cells = settings: cited from earlier work
# [2] = Solubility in solvents (descriptive); type: physicochemical
# ulcerative colitis = assay: Clinical trial in ulcerative colitis; type: in vivo, humans; settings: recent clinical trial
SMILES,Particle size d10 [1] [μm],Particle size d50 [1] [μm],Particle size d90 [1] [μm],Particle Size Distribution Ratio [1],Solubility ([2]; in acetone),Solubility ([2]; in chloroform),Solubility ([2]; in ethanol),Solubility ([2]; in water),Cell cycle effect (leukemia cells; leukemia cells),Expression of oncogene c-myb (leukemia cells; leukemia cells),"Cell growth (leukemia cells; low concentrations, without a decrease in cell viability)",Efficacy against ulcerative colitis (ulcerative colitis),Side effects (ulcerative colitis)
"CN1C(=O)/C(=C2/C(=O)Nc3ccccc32)c2ccccc21 [NAT-1202, N-methylisoindigo]",5.035,15.603,30.339,1.62,–,–,–,–,–,–,–,–,–
"CN1C(=O)/C(=C2/C(=O)Nc3ccccc32)c2ccccc21 [NAT-0601, N-methylisoindigo]",2.506,12.464,25.635,1.86,–,–,–,–,–,–,–,–,–
"CN1C(=O)/C(=C2/C(=O)Nc3ccccc32)c2ccccc21 [NAT-1201, N-methylisoindigo]",3.599,13.301,26.897,1.75,–,–,–,–,–,–,–,–,–

# Second part, led by results:
Particle size d10 [1] [μm],Particle size d50 [1] [μm],Particle size d90 [1] [μm],Particle Size Distribution Ratio [1],Solubility ([2]; in acetone),Solubility ([2]; in chloroform),Solubility ([2]; in ethanol),Solubility ([2]; in water),SMILES,Cell cycle effect (leukemia cells; leukemia cells),Expression of oncogene c-myb (leukemia cells; leukemia cells),"Cell growth (leukemia cells; low concentrations, without a decrease in cell viability)",Efficacy against ulcerative colitis (ulcerative colitis),Side effects (ulcerative colitis)
5.295,15.674,30.015,1.58,–,–,–,–,"CN1C(=O)/C(=C2/C(=O)Nc3ccccc32)c2ccccc21 [NAT-1203, N-methylisoindigo]",–,–,–,–,–
–,–,–,–,sparingly soluble,sparingly soluble,sparingly soluble,slightly soluble,CN1C(=O)/C(=C2/C(=O)Nc3ccccc32)c2ccccc21 [N-methylisoindigo],arrests leukemia cells at G phase,inhibits,completely inhibited,very effective,no significant side effects
3.249,12.268,23.99,1.69,–,–,–,–,"CN1C(=O)/C(=C2/C(=O)Nc3ccccc32)c2ccccc21 [NAT-0801, N-methylisoindigo]",–,–,–,–,–
